One data set has as its target Cytochrome P450 2C19 (Homo sapiens, UniProt P33261). The data set is described as follows: Inhibition of CYP2C19 in human liver microsomes after 30 mins in presence of NADPH. The data set is classed as ADME. A general note: Microsomes from liver hold many membrane-bound enzymes, among them those of drug oxidation.
Data set [1] in a line: Solubility of the compound in amorphous form in phosphate buffer at pH 6.5. Type of data set: physicochemical.
Data set [2] in a line: Drug uptake in rat liver at 10 mg/kg, po after 6 hrs. Type of data set: ADME, organism-based. Details: dose 10 mg/kg, route oral. Conditions: read-out: Drug uptake.
In data set [3] the target is Sodium channel protein type 5 subunit alpha (Homo sapiens, UniProt Q14524). As to the kind of experiment: Inhibition of human NaV1.5 expressed in HEK293 cells by fluorescence-based thallium flux assay. The data set is classed as cell-based.
Sodium channel protein type 5 subunit alpha, sequence (Q14524 whole entry): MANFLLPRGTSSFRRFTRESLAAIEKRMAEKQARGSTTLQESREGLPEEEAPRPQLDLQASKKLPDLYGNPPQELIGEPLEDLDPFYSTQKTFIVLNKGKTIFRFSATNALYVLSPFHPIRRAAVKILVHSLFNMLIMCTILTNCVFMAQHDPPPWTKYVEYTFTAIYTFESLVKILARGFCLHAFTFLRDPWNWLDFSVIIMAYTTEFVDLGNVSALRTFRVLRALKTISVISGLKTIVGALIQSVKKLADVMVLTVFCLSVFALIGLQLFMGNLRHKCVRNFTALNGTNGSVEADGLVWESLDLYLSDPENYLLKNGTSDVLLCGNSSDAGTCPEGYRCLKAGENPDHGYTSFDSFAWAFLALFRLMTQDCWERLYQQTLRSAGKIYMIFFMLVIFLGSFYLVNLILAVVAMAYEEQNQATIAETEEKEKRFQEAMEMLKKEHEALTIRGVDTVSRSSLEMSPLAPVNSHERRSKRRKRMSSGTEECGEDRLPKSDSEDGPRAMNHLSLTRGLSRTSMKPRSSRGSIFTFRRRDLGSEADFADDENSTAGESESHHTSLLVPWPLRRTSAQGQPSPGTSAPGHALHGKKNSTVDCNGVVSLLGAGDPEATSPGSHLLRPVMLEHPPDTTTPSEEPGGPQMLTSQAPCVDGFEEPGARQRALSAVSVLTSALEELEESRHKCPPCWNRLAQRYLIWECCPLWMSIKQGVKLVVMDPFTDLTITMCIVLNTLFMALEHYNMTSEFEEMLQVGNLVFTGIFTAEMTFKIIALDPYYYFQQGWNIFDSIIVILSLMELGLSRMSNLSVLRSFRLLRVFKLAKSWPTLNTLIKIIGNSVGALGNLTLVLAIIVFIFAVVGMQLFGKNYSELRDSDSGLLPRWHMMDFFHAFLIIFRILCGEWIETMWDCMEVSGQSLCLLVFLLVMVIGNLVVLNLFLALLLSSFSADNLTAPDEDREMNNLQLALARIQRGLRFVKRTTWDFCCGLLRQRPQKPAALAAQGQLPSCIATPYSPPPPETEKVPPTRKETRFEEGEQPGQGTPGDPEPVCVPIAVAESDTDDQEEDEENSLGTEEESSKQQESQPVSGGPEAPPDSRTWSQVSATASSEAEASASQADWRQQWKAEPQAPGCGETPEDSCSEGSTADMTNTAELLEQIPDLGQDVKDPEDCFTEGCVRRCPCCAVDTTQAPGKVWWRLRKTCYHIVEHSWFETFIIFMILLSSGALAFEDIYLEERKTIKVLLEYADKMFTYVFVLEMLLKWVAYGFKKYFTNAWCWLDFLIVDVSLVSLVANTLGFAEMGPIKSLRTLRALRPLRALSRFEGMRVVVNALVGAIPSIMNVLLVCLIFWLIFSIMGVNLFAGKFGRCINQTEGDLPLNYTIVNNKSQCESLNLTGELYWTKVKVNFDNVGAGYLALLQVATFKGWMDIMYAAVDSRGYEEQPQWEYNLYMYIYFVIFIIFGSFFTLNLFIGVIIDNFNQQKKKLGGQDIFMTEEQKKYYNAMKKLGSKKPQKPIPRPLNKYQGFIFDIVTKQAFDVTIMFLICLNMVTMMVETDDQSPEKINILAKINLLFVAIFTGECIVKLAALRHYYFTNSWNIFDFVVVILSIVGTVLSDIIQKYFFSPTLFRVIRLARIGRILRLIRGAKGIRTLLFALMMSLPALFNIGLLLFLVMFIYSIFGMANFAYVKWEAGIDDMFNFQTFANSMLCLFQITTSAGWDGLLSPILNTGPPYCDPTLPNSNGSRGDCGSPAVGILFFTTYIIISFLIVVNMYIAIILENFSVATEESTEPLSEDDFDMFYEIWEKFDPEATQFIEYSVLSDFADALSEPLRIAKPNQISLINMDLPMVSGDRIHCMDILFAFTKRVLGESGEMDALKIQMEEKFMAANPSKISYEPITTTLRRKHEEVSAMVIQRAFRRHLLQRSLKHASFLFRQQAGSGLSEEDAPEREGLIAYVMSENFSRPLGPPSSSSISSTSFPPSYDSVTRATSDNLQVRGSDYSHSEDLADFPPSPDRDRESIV
The next data set deals with HepG2. The data set is described as follows: Cytotoxicity against human HepG2 cells. The data set is classed as cell-based.
In data set [4] the test system is Hepatitis C virus. As to the kind of experiment: Antiviral activity against Hepatitis C virus Con1 genotype 1b infected in human HuH7 cells after 3 days by FRET assay in presence of 40% human serum. The data set is classed as functional, organism-based, Hepacivirus hominis. Conditions: isolate Con1, Huh-7, 72 h.
In data set [5] the test system is Liver microsome. Conditions: rat, microsomes.
The next data set has as its target Cytochrome P450 2D6 (Homo sapiens, UniProt P10635). As to the kind of experiment: Inhibition of CYP2D6 in human liver microsomes after 30 mins in presence of NADPH. Type of data set: ADME.
The nature of data set [6]: AUC (0 to 6 hrs) in rat at 10 mg/kg, po. The data set is classed as ADME, organism-based. Details: time < 6 hr, dose 10 mg/kg, route oral. Conditions: plasma.
Data set [7] in a line: Cytotoxicity against human HuH7 cells by Alamar blue assay. The data set is classed as cell-based. To be noted: Huh-7 cells.
The test system of data set [8] is Hepatitis C virus. The data set is described as follows: Antiviral activity against Hepatitis C virus H77c genotype 1a infected in human HuH7 cells after 3 days by FRET assay. The data set is classed as functional, organism-based, Hepacivirus hominis. To be noted: genotype 1a H77, Huh-7, 72 h.
Data set [9] is described as follows: Drug uptake in rat liver at 5 mg/kg, iv after 6 hrs. Type of data set: ADME, organism-based. Details: dose 5 mg/kg, route intravenous. To be noted: read-out: Drug uptake.
The target of another data set is Cytochrome P450 3A4 (Homo sapiens, UniProt P08684). The data set is described as follows: Inhibition of CYP3A4 in human liver microsomes using benzyloxyresorufin as substrate after 30 mins in presence of NADPH. The data set is classed as ADME.
Cytochrome P450 3A4, sequence (P08684 whole entry): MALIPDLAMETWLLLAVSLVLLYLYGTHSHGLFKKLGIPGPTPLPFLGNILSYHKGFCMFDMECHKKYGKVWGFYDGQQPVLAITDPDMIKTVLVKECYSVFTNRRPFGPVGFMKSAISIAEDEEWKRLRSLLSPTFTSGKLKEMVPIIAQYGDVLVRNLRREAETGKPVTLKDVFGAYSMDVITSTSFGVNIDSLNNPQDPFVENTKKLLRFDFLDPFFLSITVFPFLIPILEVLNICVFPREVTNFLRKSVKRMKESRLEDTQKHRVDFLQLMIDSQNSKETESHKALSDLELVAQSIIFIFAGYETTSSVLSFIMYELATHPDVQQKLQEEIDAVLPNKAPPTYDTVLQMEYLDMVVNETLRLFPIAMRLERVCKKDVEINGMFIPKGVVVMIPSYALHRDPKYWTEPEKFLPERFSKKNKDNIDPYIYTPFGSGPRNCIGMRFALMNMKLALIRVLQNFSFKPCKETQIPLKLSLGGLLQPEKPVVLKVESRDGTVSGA
Data set [10] can be described thus: Plasma concentration in rat at 5 mg/kg, iv after 6 hrs. Type of data set: ADME, organism-based. On the set-up: dose 5 mg/kg, route intravenous.
In data set [11] the test system is Liver microsome. To be noted: human, microsomes.
The target of data set [12] is Voltage-gated inwardly rectifying potassium channel KCNH2 (Homo sapiens, UniProt Q12809). The data set is described as follows: Inhibition of human ERG by fluorescence-based thallium flux assay.
Voltage-gated inwardly rectifying potassium channel KCNH2, sequence (Q12809 whole entry): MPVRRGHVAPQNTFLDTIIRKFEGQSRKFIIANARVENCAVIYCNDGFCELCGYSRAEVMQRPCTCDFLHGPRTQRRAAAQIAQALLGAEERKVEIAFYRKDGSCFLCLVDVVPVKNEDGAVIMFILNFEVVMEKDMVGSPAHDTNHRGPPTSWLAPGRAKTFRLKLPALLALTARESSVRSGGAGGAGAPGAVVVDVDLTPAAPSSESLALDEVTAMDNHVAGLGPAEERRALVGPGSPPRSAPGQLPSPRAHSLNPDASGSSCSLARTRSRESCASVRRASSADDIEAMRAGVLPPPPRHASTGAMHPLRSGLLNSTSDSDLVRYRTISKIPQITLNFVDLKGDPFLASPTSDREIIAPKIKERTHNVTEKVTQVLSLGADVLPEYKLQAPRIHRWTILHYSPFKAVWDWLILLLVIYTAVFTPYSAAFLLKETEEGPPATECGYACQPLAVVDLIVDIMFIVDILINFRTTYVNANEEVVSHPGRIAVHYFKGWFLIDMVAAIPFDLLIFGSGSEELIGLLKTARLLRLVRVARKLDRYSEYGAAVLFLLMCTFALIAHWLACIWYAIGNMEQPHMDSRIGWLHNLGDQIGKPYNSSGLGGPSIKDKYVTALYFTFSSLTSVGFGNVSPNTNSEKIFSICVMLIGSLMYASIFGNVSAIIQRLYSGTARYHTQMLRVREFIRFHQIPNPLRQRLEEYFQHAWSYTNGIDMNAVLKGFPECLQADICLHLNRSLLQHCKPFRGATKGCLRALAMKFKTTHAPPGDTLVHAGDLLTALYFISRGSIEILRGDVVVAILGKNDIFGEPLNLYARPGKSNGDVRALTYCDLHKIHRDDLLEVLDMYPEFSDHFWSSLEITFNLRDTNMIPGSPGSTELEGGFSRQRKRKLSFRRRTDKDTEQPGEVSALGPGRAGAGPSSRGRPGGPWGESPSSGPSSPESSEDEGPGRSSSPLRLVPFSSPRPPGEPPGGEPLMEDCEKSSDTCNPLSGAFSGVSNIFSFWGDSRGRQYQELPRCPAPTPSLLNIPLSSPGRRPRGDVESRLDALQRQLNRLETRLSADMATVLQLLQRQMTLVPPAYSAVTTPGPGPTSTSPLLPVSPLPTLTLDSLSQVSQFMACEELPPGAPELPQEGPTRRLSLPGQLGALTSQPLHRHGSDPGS
A short description of data set [13]: Clearance in rat at 5 mg/kg, iv and 10 mg/kg, po. Type of data set: ADME, organism-based. To be noted: in vivo.
For the next data set, the target named is T1, Cytochrome P450 1A2 (Homo sapiens, UniProt P05177).
T1 sequence (P05177 whole entry): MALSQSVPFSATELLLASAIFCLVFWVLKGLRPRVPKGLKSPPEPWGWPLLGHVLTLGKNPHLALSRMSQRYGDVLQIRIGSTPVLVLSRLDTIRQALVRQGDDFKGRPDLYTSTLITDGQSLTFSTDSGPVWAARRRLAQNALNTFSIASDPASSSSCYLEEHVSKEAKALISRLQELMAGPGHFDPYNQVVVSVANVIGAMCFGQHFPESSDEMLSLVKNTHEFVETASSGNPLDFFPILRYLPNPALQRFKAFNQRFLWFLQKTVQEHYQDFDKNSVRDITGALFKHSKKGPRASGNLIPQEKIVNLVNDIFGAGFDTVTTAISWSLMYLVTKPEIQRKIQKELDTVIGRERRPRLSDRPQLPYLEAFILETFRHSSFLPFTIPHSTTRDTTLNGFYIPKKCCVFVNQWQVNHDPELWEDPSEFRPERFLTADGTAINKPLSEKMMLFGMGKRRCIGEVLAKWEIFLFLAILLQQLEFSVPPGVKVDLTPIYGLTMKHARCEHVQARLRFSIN
As to the kind of experiment: Inhibition of CYP1A2 in human liver microsomes after 30 mins in presence of NADPH. The data set is classed as ADME.

Data set [14] can be described thus: Permeability of the compound at pH 7.4 by PAMPA. The data set is classed as physicochemical. To be noted: read-out: permeability.
Data set [15] addresses T2, Nuclear receptor subfamily 1 group I member 2 (Homo sapiens, UniProt O75469).
T2 sequence (O75469 whole entry): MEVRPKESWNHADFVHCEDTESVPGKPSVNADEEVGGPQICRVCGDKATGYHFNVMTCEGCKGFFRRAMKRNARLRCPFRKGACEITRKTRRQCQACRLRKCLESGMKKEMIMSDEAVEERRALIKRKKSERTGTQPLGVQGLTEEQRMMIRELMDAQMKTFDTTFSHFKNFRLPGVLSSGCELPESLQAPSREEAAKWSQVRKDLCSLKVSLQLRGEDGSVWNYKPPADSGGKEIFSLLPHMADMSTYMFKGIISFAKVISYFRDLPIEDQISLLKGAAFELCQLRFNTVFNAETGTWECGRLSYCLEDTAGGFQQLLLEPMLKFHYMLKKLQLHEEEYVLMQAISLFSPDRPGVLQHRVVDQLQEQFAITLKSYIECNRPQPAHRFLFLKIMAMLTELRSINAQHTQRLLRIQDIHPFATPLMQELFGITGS
The data set is described as follows: Transactivation of human PXR expressed in human HepG2 cells by luciferase reporter gene assay. Type of data set: cell-based.

A short description of data set [16]: AUC (0 to 6 hrs) in rat at 5 mg/kg, iv. Type of data set: ADME, organism-based. Details: time < 6 hr, dose 5 mg/kg, route intravenous. Conditions: plasma.
Data set [17] concerns Hepatitis C virus. As to the kind of experiment: Antiviral activity against Hepatitis C virus Con1 genotype 1b infected in human HuH7 cells after 3 days by FRET assay. To be noted: isolate Con1, Huh-7, 72 h. The data set is classed as functional, organism-based, Hepacivirus hominis.
The nature of data set [18]: Plasma concentration in rat at 10 mg/kg, po after 6 hrs. Type of data set: ADME, organism-based. On the set-up: dose 10 mg/kg, route oral.
Another data set has as its target Cytochrome P450 2C9 (Homo sapiens, UniProt P11712). As to the kind of experiment: Inhibition of CYP2C9 in human liver microsomes after 30 mins in presence of NADPH. The data set is classed as ADME.
Data set [19] is described as follows: AUC (0 to 4 hrs) in rat at 10 mg/kg, po. The data set is classed as ADME, organism-based. Conditions: plasma. Details: time < 4 hr, dose 10 mg/kg, route oral.
Data set [20] in a line: Drug uptake in rat liver at 5 mg/kg, iv after 4 hrs. Type of data set: ADME, organism-based. On the set-up: dose 5 mg/kg, route intravenous. Conditions: read-out: Drug uptake.
Data set [21] can be described thus: Plasma clearance in rat at 5 mg/kg, iv. On the set-up: dose 5 mg/kg, route intravenous. Type of data set: ADME, organism-based.
Data set [22] can be described thus: Plasma concentration in rat at 5 mg/kg, iv after 4 hrs. Type of data set: ADME, organism-based. On the set-up: dose 5 mg/kg, route intravenous.
A short description of data set [23]: AUC (0 to 4 hrs) in rat at 5 mg/kg, iv. The data set is classed as ADME, organism-based. On the set-up: time < 4 hr, dose 5 mg/kg, route intravenous. To be noted: plasma.
A short description of data set [24]: Drug uptake in rat liver at 10 mg/kg, po after 4 hrs. The data set is classed as ADME, organism-based. On the set-up: dose 10 mg/kg, route oral. Conditions: read-out: Drug uptake.
Data set [25] can be described thus: Plasma concentration in rat at 10 mg/kg, po after 4 hrs. The data set is classed as ADME, organism-based. On the set-up: dose 10 mg/kg, route oral.
Data set [26] is described as follows: Ratio of drug level in liver to plasma in rat at 5 mg/kg, iv after 4 hrs. Type of data set: ADME, organism-based. On the set-up: dose 5 mg/kg, route intravenous.
For data set [27], the system named is Hepatitis C virus. The data set is described as follows: Antiviral activity against Hepatitis C virus genotype 1b by cell-based assay. The data set is classed as functional, organism-based, Hepacivirus hominis.
Data set [28] relates to Hepatitis C virus. The data set is described as follows: Antiviral activity against Hepatitis C virus genotype 1a by cell-based assay. Type of data set: functional, organism-based, Hepacivirus hominis. Conditions: subtype 1a.

Molecules are shown by their SMILES. In brackets after ≈: the same amount, converted by molar mass.

Cytochrome P450 2C9, sequence (P11712 whole entry): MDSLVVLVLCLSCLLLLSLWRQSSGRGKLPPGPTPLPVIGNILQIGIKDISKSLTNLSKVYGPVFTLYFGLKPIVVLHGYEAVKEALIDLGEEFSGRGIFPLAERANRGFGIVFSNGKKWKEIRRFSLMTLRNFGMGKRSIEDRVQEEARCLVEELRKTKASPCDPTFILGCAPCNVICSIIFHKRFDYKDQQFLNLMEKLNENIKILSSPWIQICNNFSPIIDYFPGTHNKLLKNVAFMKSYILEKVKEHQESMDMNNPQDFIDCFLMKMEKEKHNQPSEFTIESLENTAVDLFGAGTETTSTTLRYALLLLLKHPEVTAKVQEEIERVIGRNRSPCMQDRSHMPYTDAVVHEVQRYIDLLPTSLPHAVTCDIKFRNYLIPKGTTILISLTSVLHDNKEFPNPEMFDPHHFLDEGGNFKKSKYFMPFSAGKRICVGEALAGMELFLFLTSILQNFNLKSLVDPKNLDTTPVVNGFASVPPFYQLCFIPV
Cytochrome P450 2D6, sequence (P10635 whole entry): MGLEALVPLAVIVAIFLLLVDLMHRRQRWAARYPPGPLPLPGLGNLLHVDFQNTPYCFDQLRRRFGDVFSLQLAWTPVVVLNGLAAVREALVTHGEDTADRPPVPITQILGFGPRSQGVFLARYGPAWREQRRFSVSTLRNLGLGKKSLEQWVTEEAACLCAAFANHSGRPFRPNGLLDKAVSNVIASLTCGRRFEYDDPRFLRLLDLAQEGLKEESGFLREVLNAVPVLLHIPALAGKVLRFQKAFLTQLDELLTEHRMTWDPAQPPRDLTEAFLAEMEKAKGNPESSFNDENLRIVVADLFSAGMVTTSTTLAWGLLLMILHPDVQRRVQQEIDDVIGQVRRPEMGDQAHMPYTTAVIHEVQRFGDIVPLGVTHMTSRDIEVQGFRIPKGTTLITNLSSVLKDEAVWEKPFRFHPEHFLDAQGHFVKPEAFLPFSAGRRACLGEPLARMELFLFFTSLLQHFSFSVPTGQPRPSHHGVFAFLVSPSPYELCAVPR

As to `COc1ccc2c(c1)[C@@H]1C[C@]1(C(=O)N1C3CC1CN(C)C3)Cn1c-2c(C2CCCCC2)c2ccc(C(=O)NS(=O)(=O)N(C)C)cc21`, the EC50 (usually the midpoint of the concentration-response curve) at Cytochrome P450 2C19 was above 40 µM; in data set [3], 30 µM; with HepG2, 25 µM; in the data set on Hepatitis C virus [4] it was 0.028 µM; on Cytochrome P450 2D6 it was above 40 µM; with Hepatitis C virus [8] it was 0.006 µM. The EC50 was 14 µM at Cytochrome P450 3A4; 20 µM in data set [12]; above 40 µM at Cytochrome P450 1A2; above 50 µM in data set [15]; 0.005 µM in the data set with Hepatitis C virus [17]; above 40 µM on Cytochrome P450 2C9. In addition, the concentration in solution in [1] (solubility) came to 760 µg/mL (≈ 1180 µM). In addition, the concentration at 6 h in data set [2] amounted to 14300 nM; in data set [9], 17500 nM; in [10], 409 nM; in data set [18], 440 nM. For the same molecule, the Stability in the data set on Liver microsome [5] and with Liver microsome [11] was 98% throughout. The results for the AUC(0-t) at 6 h in data set [6] and in data set [16] were 4.93 µM·h and 11.2 µM·h, respectively. The CC50 (usually the concentration that lowers cell viability or growth by half) in data set [7] amounted to 13 µM. In data set [13], this molecule yielded a clearance of 9 mL/min/kg. In addition, the Papp in [14] amounted to 43 ×10⁻⁶ cm/s.
For the molecule `COc1ccc2c(c1)C1CC1(C(=O)N1CC(O)C1)Cn1c-2c(C2CCCCC2)c2ccc(C(=O)NS(=O)(=O)N(C)C)cc21` (racemic), the concentration in solution in [1] (solubility) came to 57 µg/mL (≈ 93.9 µM). Besides, the AUC(0-t) (in general, the area under the concentration-time curve up to a stated or last time point) at 4 h was found to be 0.041 µM·h in [19] and 1.42 µM·h in data set [23]. Also, the EC50 in the data set with Hepatitis C virus [4] is 0.059 µM; in the data set on Hepatitis C virus [8] it was 0.045 µM; in data set [15] it was above 50 µM; in the data set on Hepatitis C virus [17], 0.038 µM. In addition, the concentration at 4 h is 5000 nM in [20], 17 nM in [22], 8800 nM in data set [24] and 11 nM in data set [25]. The clearance in data set [21] amounted to 96 mL/min/kg. Further, the Stability turned out to be 84% in the data set on Liver microsome [5] and 95% in the data set on Liver microsome [11]. Further, in data set [7], the CC50 was above 10 µM. In addition, the Papp in data set [14] worked out at 25 ×10⁻⁶ cm/s. The Kp (commonly the ratio of the level in a tissue or fluid to that in plasma or blood) at 4 h in data set [26] is above 200.
For `Cn1c(C2(NC(=O)c3ccc4c(C5CCCC5)c(-c5ncc(Br)cn5)n(C)c4c3)CCC2)nc2ccc(/C=C/C(=O)O)cc21` [DELEOBUVIR], the values for the EC50 with Hepatitis C virus [27] and in the data set with Hepatitis C virus [28] were 0.017 µM and 0.043 µM, respectively.

(Values after ChEMBL document CHEMBL3124792, “Discovery and preclinical characterization of the cyclopropylindolobenzazepine BMS-791325, a potent allosteric inhibitor of the hepatitis C virus NS5B polymerase” (J Med Chem, 2014).)
